In ChEMBL document CHEMBL1201862, “PubChem BioAssay data set” (2004):
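Values below derive from 48-hour exposures of cells grown in 96-well plates, with endpoints linearly interpolated between the two concentrations bracketing the appropriate inhibition level. At the GI50, growth is halved.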 Active and inactive are the calls of the source. Rule as the data show it: active = GI50 up to about 1.1 µM and inactive = higher.

How the values were obtained:
Assay in all cases: NCI anticancer screen, dose series, 48 h
DU-145 = tested on: DU-145
OVCAR-5 = tested on: OVCAR-5
OVCAR-8 = tested on: OVCAR-8
OVCAR-3 = tested on: OVCAR-3
OVCAR-4 = tested on: OVCAR-4
LOX IMVI = tested on: LOX IMVI
RPMI-8226 = tested on: RPMI-8226
UO-31 = tested on: UO-31
SF-295 = tested on: SF-295
RXF 393 = tested on: RXF 393
SW-620 = tested on: SW-620
MDA-MB-435 = tested on: MDA-MB-435
SK-MEL-28 = tested on: SK-MEL-28
EKVX = tested on: EKVX
HCT-116 = tested on: HCT-116
A549 = tested on: A549
SK-OV-3 = tested on: SK-OV-3
BT-549 = tested on: BT-549
NCI-H460 = tested on: NCI-H460
HL-60 = tested on: HL-60

Structure (SMILES)	GI50 (DU-145)	GI50 (OVCAR-5)	GI50 (OVCAR-8)	GI50 (OVCAR-3)	GI50 (OVCAR-4)	GI50 (LOX IMVI)	GI50 (RPMI-8226)	GI50 (UO-31)	GI50 (SF-295)	GI50 (RXF 393)	GI50 (SW-620)	GI50 (MDA-MB-435)	GI50 (SK-MEL-28)	GI50 (EKVX)	GI50 (HCT-116)	GI50 (A549)	GI50 (SK-OV-3)	GI50 (BT-549)	GI50 (NCI-H460)	GI50 (HL-60)
COc1cccc2nc3c(C(=O)NCCN(C)C)cccc3cc12	5.74 µM (inactive)	1.94 µM (inactive)	1.26 µM (inactive)	3.14 µM (inactive)	1.67 µM (inactive)	0.771 µM (active)	1.21 µM (inactive)	1.11 µM (active)	2.12 µM (inactive)	3.94 µM (inactive)	1.09 µM (active)	2.69 µM (inactive)	2.63 µM (inactive)	2.38 µM (inactive)	1.34 µM (inactive)	0.473 µM (active)	1.43 µM (inactive)	2.57 µM (inactive)	0.195 µM (active)	
O=C(/C=C/c1ccc(O)c(O)c1)c1cc(O)cc(O)c1	18.1 µM (inactive)	14.6 µM (inactive)	14.3 µM (inactive)	13.2 µM (inactive)	10.4 µM (inactive)	5.42 µM (inactive)	71.6 µM (inactive)	10.6 µM (inactive)	19.7 µM (inactive)	10.4 µM (inactive)		6.59 µM (inactive)	16.4 µM (inactive)	20.6 µM (inactive)	12.8 µM (inactive)	> 100 µM (inactive)	13.9 µM (inactive)	8.69 µM (inactive)		2.25 µM (inactive)
C[N+]1(c2ccccc2)C=C(c2ccccc2)SC1=S (stereo not drawn)	3.9 µM (inactive)	> 100 µM (inactive)	> 100 µM (inactive)	8.22 µM (inactive)		> 100 µM (inactive)	21 µM (inactive)	> 100 µM (inactive)	> 100 µM (inactive)	1.87 µM (inactive)	> 100 µM (inactive)	> 100 µM (inactive)	7.33 µM (inactive)	18.1 µM (inactive)	> 100 µM (inactive)	> 100 µM (inactive)		> 100 µM (inactive)	95.7 µM (inactive)	> 100 µM (inactive)
c1ccc(-c2cn3nc(N4CCOCC4)sc3n2)cc1	> 100 µM (inactive)	> 100 µM (inactive)	31.8 µM (inactive)	> 100 µM (inactive)	34 µM (inactive)		> 100 µM (inactive)	> 100 µM (inactive)	> 100 µM (inactive)	83.6 µM (inactive)	> 100 µM (inactive)	> 100 µM (inactive)	> 100 µM (inactive)	> 100 µM (inactive)	> 100 µM (inactive)	> 100 µM (inactive)	> 100 µM (inactive)	> 100 µM (inactive)	54.1 µM (inactive)	> 100 µM (inactive)
C(=N\c1ccc(-c2nc3ccccc3s2)cc1)/c1ccco1	> 100 µM (inactive)	> 100 µM (inactive)	64.9 µM (inactive)	43.6 µM (inactive)	59.6 µM (inactive)	54.1 µM (inactive)	41.6 µM (inactive)	62.4 µM (inactive)	18.9 µM (inactive)	55.7 µM (inactive)	> 100 µM (inactive)	64.3 µM (inactive)	> 100 µM (inactive)	37.2 µM (inactive)	82 µM (inactive)	56.6 µM (inactive)	83.8 µM (inactive)	83.4 µM (inactive)	40.3 µM (inactive)	
C=C1CC(COc2ccc3c(C)cc(=O)oc3c2)(c2ccccc2)OC1=O (stereo not drawn)	2.48 µM (inactive)	12.1 µM (inactive)	2.26 µM (inactive)	2.69 µM (inactive)	2.16 µM (inactive)	1.26 µM (inactive)	0.292 µM (active)	4.88 µM (inactive)	6.85 µM (inactive)		0.646 µM (active)	2.43 µM (inactive)	2.41 µM (inactive)	9.29 µM (inactive)	1.27 µM (inactive)	11.5 µM (inactive)	4.17 µM (inactive)	1.74 µM (inactive)	7.43 µM (inactive)	0.263 µM (active)
O=C(NC12CC3CC(CC(C3)C1)C2)n1cnc2c(Cl)ncnc21	24.3 µM (inactive)	> 100 µM (inactive)	26 µM (inactive)	22.7 µM (inactive)		18.7 µM (inactive)	40.7 µM (inactive)	> 100 µM (inactive)	59.8 µM (inactive)	35.2 µM (inactive)	37 µM (inactive)	19.1 µM (inactive)	42.9 µM (inactive)	25.8 µM (inactive)	37.8 µM (inactive)	38.4 µM (inactive)	34.3 µM (inactive)	31.3 µM (inactive)	28 µM (inactive)	3.28 µM (inactive)
CC(C)C12CCC3(CCC4C(C)(C(=O)O)CCCC4(C)C3C1)C(CN)C2 (stereo not drawn)	38.6 µM (inactive)	42.3 µM (inactive)	30.7 µM (inactive)	40.1 µM (inactive)	67.9 µM (inactive)	18.7 µM (inactive)	19.3 µM (inactive)	40.4 µM (inactive)	51.2 µM (inactive)	35.2 µM (inactive)	35.4 µM (inactive)	37.7 µM (inactive)	39.7 µM (inactive)	32.2 µM (inactive)	17.3 µM (inactive)	30.1 µM (inactive)	> 100 µM (inactive)	38.5 µM (inactive)	21.5 µM (inactive)	
C[C@]12CCC(=O)C=C1CC[C@@H]1[C@@H]2CC[C@]2(C)C(=O)/C(=C/c3ccc([N+](=O)[O-])cc3)C[C@@H]12	0.824 µM (active)	> 100 µM (inactive)	45.8 µM (inactive)	8.91 µM (inactive)		37.9 µM (inactive)	5.52 µM (inactive)	3.45 µM (inactive)	63.7 µM (inactive)	13.5 µM (inactive)	> 100 µM (inactive)	6.04 µM (inactive)	> 100 µM (inactive)	17.1 µM (inactive)	9.57 µM (inactive)	8.36 µM (inactive)	> 100 µM (inactive)	6.3 µM (inactive)	9.57 µM (inactive)	3.51 µM (inactive)
C[C@@H]1C[C@H]2[C@@H]3CCC4=CC(=O)C=C[C@]4(C)[C@@]3(Cl)[C@@H](Cl)C[C@]2(C)[C@@]1(O)C(=O)COP(=O)(O)O	> 100 µM (inactive)	> 100 µM (inactive)	> 100 µM (inactive)	> 100 µM (inactive)	> 100 µM (inactive)	> 100 µM (inactive)	0.0128 µM (active)	> 100 µM (inactive)	> 100 µM (inactive)	> 100 µM (inactive)	> 100 µM (inactive)	> 100 µM (inactive)	> 100 µM (inactive)	> 100 µM (inactive)	89.3 µM (inactive)	> 100 µM (inactive)	> 100 µM (inactive)	52.1 µM (inactive)		
CN(C)Cc1cc(C(=O)/C=C/c2ccc([N+](=O)[O-])cc2)cc(CN(C)C)c1O	11 µM (inactive)	16.6 µM (inactive)	25 µM (inactive)	2.27 µM (inactive)		2.24 µM (inactive)	2.43 µM (inactive)	16.1 µM (inactive)	22.3 µM (inactive)	14.2 µM (inactive)	10.3 µM (inactive)	7.1 µM (inactive)		12.8 µM (inactive)	2.86 µM (inactive)	22.7 µM (inactive)		13.6 µM (inactive)		2.07 µM (inactive)
